Measured values reported in ChEMBL document CHEMBL3870345, “Bioactive chemical constituents from the root bark of Morus australis” (Bioorg Med Chem Lett, 2017).
In brackets after ≈: the same amount, converted by molar mass.

Legend:
[1] = Antiplatelet aggregatory activity against New Zealand white rabbit platelets at 10 uM preincubated for 2 to 3 mins followed by PAF-addition measured after 4 mins by turbidometric method relative to vehicle control; assay type: functional, Oryctolagus cuniculus, Platelet
[2] = Antiplatelet aggregatory activity against New Zealand white rabbit platelets at 100 uM preincubated for 2 to 3 mins followed by PAF-addition measured after 4 mins by turbidometric method relative to vehicle control; assay type: functional, Oryctolagus cuniculus, Platelet
[3] = Antiplatelet aggregatory activity against New Zealand white rabbit platelets at 100 uM preincubated for 2 to 3 mins followed by ADP-addition measured after 4 mins by turbidometric method relative to vehicle control; assay type: functional, Oryctolagus cuniculus, Platelet
[4] = Cytotoxicity against mouse RAW264.7 cells assessed as cell viability at 3.125 ug/ml measured after 24 hrs in presence of LPS by MTT assay (reference value: 96.3 +/- 1%); assay type: toxicity; details: read-out: Activity
[5] = Cytotoxicity against mouse RAW264.7 cells assessed as cell viability at 12.5 ug/ml measured after 24 hrs in presence of LPS by MTT assay (reference value: 96.3 +/- 1%); assay type: toxicity; details: read-out: Activity
RAW264.7 [6] = assay: Inhibition of LPS-induced NO production in mouse RAW264.7 cells at 6.25 ug/ml measured after 24 hrs by Griess assay relative to LPS-treated control; assay type: functional; details: RAW264.7, 24 h
[7] = Cytotoxicity against mouse RAW264.7 cells assessed as cell viability at 25 ug/ml measured after 24 hrs in presence of LPS by MTT assay (reference value: 96.3 +/- 1%); assay type: toxicity; details: read-out: Activity
RAW264.7 [8] = assay: Inhibition of LPS-induced NO production in mouse RAW264.7 cells at 12.5 ug/ml measured after 24 hrs by Griess assay relative to LPS-treated control; assay type: functional; details: RAW264.7, 24 h
[9] = Antiplatelet aggregatory activity against New Zealand white rabbit platelets at 100 uM preincubated for 2 to 3 mins followed by arachidonic acid -addition measured after 4 mins by turbidometric method relative to vehicle control; assay type: functional, Oryctolagus cuniculus, Platelet
RAW264.7 [10] = assay: Inhibition of LPS-induced NO production in mouse RAW264.7 cells at 3.125 ug/ml measured after 24 hrs by Griess assay relative to LPS-treated control; assay type: functional; details: RAW264.7, 24 h
RAW264.7 [11] = assay: Inhibition of LPS-induced NO production in mouse RAW264.7 cells measured after 24 hrs by Griess assay; assay type: functional, cell-based; details: for IC50: RAW264.7, 24 h
[12] = Cytotoxicity against mouse RAW264.7 cells assessed as cell viability at 50 ug/ml measured after 24 hrs in presence of LPS by MTT assay (reference value: 96.3 +/- 1%); assay type: toxicity; details: read-out: Activity
RAW264.7 [13] = assay: Inhibition of LPS-induced NO production in mouse RAW264.7 cells at 25 ug/ml measured after 24 hrs by Griess assay relative to LPS-treated control; assay type: functional; details: RAW264.7, 24 h
[14] = Cytotoxicity against mouse RAW264.7 cells assessed as cell viability at 6.25 ug/ml measured after 24 hrs in presence of LPS by MTT assay (reference value: 96.3 +/- 1%); assay type: toxicity; details: read-out: Activity
[15] = Antiplatelet aggregatory activity against New Zealand white rabbit platelets at 50 uM preincubated for 2 to 3 mins followed by arachidonic acid -addition measured after 4 mins by turbidometric method relative to vehicle control; assay type: functional, Oryctolagus cuniculus, Platelet
[16] = Antiplatelet aggregatory activity against New Zealand white rabbit platelets preincubated for 2 to 3 mins followed by ADP-addition measured after 4 mins by turbidometric method; assay type: functional, cell-based, Oryctolagus cuniculus; details: platelet
[17] = Antiplatelet aggregatory activity against New Zealand white rabbit platelets preincubated for 2 to 3 mins followed by arachidonic acid-addition measured after 4 mins by turbidometric method; assay type: functional, cell-based, Oryctolagus cuniculus; details: platelet
RAW264.7 [18] = assay: Inhibition of LPS-induced NO production in mouse RAW264.7 cells at 1.562 ug/ml measured after 24 hrs by Griess assay relative to LPS-treated control; assay type: functional; details: RAW264.7, 24 h
[19] = Cytotoxicity against mouse RAW264.7 cells assessed as cell viability at 1.562 ug/ml measured after 24 hrs in presence of LPS by MTT assay (reference value: 96.3 +/- 1%); assay type: toxicity; details: read-out: Activity
RAW264.7 [20] = assay: Inhibition of LPS-induced NO production in mouse RAW264.7 cells at 1.563 ug/ml measured after 24 hrs by Griess assay relative to LPS-treated control; assay type: functional; details: RAW264.7, 24 h
[21] = Cytotoxicity against mouse RAW264.7 cells assessed as cell viability at 1.563 ug/ml measured after 24 hrs in presence of LPS by MTT assay (reference value: 96.3 +/- 1%); assay type: toxicity; details: read-out: Activity

Row | IC50 (RAW264.7 [11]) [µg/mL] | Compound | Activity [2] [%] | Activity [3] | viability at 24 h, 3.125 ug/ml [4] [%] | viability at 24 h, 12.5 ug/ml [5] [%] | inhibition at 6.25 µg/mL (RAW264.7 [6]) [%] | viability at 24 h, 25 ug/ml [7] [%] | inhibition at 12.5 µg/mL (RAW264.7 [8]) [%] | Activity [9] [%] | inhibition at 3.125 µg/mL (RAW264.7 [10]) [%] | inhibition (RAW264.7 [11]) | viability at 24 h, 50 ug/ml [12] [%] | viability at 24 h, 6.25 ug/ml [14] [%] | also measured
1 | – | CCCCCCCCCCCCCCCCCCNC(=O)OCC(COP(=O)([O-])OCC[n+]1ccsc1)OC (centres undefined) | – | – | – | – | – | – | – | – | – | – | – | – | Activity [1]: 85.96%
2 | > 25 | CC(C)=CCC/C(C)=C/Cc1c(-c2ccc(O)cc2O)oc2c(CC=C(C)C)c(O)cc(O)c2c1=O | 90.15 | 96.37% | 100 | 97.1 | 33.7 | 96.8 | 34.1 | 89.66 | 30 | Dose-dependent effect | 67 | 99.7 | inhibition at 25 µg/mL (RAW264.7 [13]): 35%
3 | 4.5 (≈ 10.8 µM) | CC(C)=CC1Oc2cc(O)ccc2-c2oc3c4c(cc(O)c3c(=O)c21)OC(C)(C)C=C4 (centres undefined) [CYCLOMORUSIN] | <60 | <60% | 86.3 | 81.9 | 54.1 | 57.6 | 73.7 | <60 | 46.6 | Dose-dependent effect | 14 | 86.2 | –
4 | 4.1 to 4.6 (≈ 9.35 to 10.5 µM) | CC(C)(O)CCc1c(-c2ccc(O)cc2O)oc2c3c(cc(O)c2c1=O)OC(C)(C)C=C3 [MORUSINOL] | <60 | 57.88 - 78.98% | 95.9 | 69.5 to 82.1 | 59 to 62.5 | 36.9 to 49.2 | 81.4 | 50.5 | 42 to 45.8 | Dose-dependent effect | 9.9 to 14.4 | 81.9 to 91.3 | –
5 | > 12.5 | CC(C)=CCc1c(-c2ccc(O)cc2O)oc2c3c(cc(O)c2c1=O)OC(C)(C)C=C3 [MORUSIN] | <60 | 60.22% | 94.5 | 73.8 | 23.3 | 69.6 | 39.3 | <60 | 15.1 | Dose-dependent effect | 23.1 | 83.3 | –
6 | – | CC(=O)Oc1ccccc1C(=O)O [ASPIRIN] | – | – | – | – | – | – | – | – | – | – | – | – | Activity [15]: 90.62%
7 | – | C=C(C)C(=O)c1c(-c2ccc(O)cc2O)oc2cc3c(c(O)c2c1=O)C=CC(C)(C)O3 | <60 | <60% | – | – | – | – | – | <60 | – | – | – | – | –
8 | 6.3 (≈ 14.4 µM) | CC1(C)C=Cc2c(cc(O)c3c(=O)c4c(oc23)-c2ccc(O)cc2OC(C(C)(C)O)C4)O1 (centres undefined) [NEOCYCLOMORUSIN] | 99.63 | 98.57% | 98.3 | 48.8 | 50.8 | 40.8 | – | 99.7 | 41.2 | Dose-dependent effect | 12.8 | 82.4 | –
9 | – | C=C(C)C(O)CC[C@]1(C)C=Cc2c(cc3oc(-c4ccc(O)cc4)cc(=O)c3c2O)O1 (some centres undefined) | <60 | <60% | – | – | – | – | – | <60 | – | – | – | – | –
10 | 2.4 (≈ 4.76 µM) | CC(=O)Oc1ccc(-c2oc3c4c(cc(O)c3c(=O)c2CC=C(C)C)OC(C)(C)C=C4)c(OC(C)=O)c1 | 90.22 | 93.27% | 91 | 36.6 | 69.2 | 13.9 | – | 90.01 | 58.7 | Dose-dependent effect | 11.7 | 80.3 | IC50 [16]: 10.2 µM; inhibition at 1.563 µg/mL (RAW264.7 [20]): 40.4%; viability at 24 h, 1.563 ug/ml [21]: 96%

Row | Compound | IC50 (RAW264.7 [11]) [µg/mL] | Activity [2] [%] | Activity [3] | viability at 24 h, 3.125 ug/ml [4] [%] | viability at 24 h, 12.5 ug/ml [5] [%] | inhibition at 6.25 µg/mL (RAW264.7 [6]) [%] | viability at 24 h, 25 ug/ml [7] [%] | inhibition at 12.5 µg/mL (RAW264.7 [8]) [%] | Activity [9] [%] | inhibition at 3.125 µg/mL (RAW264.7 [10]) [%] | inhibition (RAW264.7 [11]) | viability at 24 h, 50 ug/ml [12] [%] | viability at 24 h, 6.25 ug/ml [14] [%] | also measured
11 | O=[N+]([O-])/C=C\c1ccc(O)cc1 | 2.1 (≈ 12.7 µM) | 73.02 | 96.35% | 89 | 48.3 | 60 | 46.9 | – | 96.03 | 59.6 | Dose-dependent effect | 11.9 | 82.2 | IC50 [16]: 9.76 µM; IC50 [17]: 9.81 µM; inhibition at 1.562 µg/mL (RAW264.7 [18]): 46.4%; viability at 24 h, 1.562 ug/ml [19]: 94.5%
